Assay results taken from ChEMBL document CHEMBL4373744, “Modifying the lipophilic part of phenylthiazole antibiotics to control their drug-likeness” (Eur J Med Chem, 2020).
Converted amounts (≈) assume the structure as drawn. The source made the active and inactive calls. No cut-off for these calls is given here.

Experiments:
[1] = tested on: Staphylococcus aureus; assay: Antibiofilm activity against methicillin-resistant Staphylococcus aureus USA300 at 2 times MIC incubated for 24 hrs by crystal violet staining based assay relative to control; assay type: functional
[2] = tested on: Listeria monocytogenes; assay: Antimicrobial activity against Listeria monocytogenes ATCC 19111 by broth liquid microdilution method; assay type: functional
[3] = tested on: Staphylococcus epidermidis; assay: Antimicrobial activity against methicillin-resistant Staphylococcus epidermidis NRS101 by broth liquid microdilution method; assay type: functional
[4] = tested on: Streptococcus pneumoniae; assay: Antimicrobial activity against cephalosporin-resistant Streptococcus pneumoniae ATCC 51916 by broth liquid microdilution method; assay type: functional
[5] = tested on: Staphylococcus aureus; assay: Antimicrobial activity against vancomycin-resistant Staphylococcus aureus 12 by broth liquid microdilution method; assay type: functional
[6] = tested on: Enterococcus faecalis; assay: microbe, parasite or virus in culture; settings: ATCC 51299
[7] = tested on: Enterococcus faecium; assay: Antimicrobial activity against vancomycin-resistant Enterococcus faecium ATCC 700221 by broth liquid microdilution method; assay type: functional
[8] = tested on: Staphylococcus aureus; assay: microbe, parasite or virus in culture; settings: ATCC 6538
Description: Antimicrobial activity against methicillin-sensitive Staphylococcus aureus ATCC 6538 by broth liquid microdilution method

[9] = tested on: Staphylococcus aureus; assay: Bactericidal activity against methicillin-resistant Staphylococcus aureus USA400 assessed as reduction in number of colony forming units at 5 times MIC incubated for 24 hrs by aliquots transfer to tryptic soy agar and grown for 18 to 20 hrs by Time-kill assay; assay type: functional, organism-based
[10] = tested on: Staphylococcus aureus; assay: Antibiofilm activity against methicillin-resistant Staphylococcus aureus USA300 incubated for 24 hrs by crystal violet staining based assay; assay type: functional, organism-based
[11] = tested on: Staphylococcus aureus; assay: microbe, parasite or virus in culture; settings: NRS 386
Description: Antimicrobial activity against methicillin-resistant Staphylococcus aureus NRS 386 by broth liquid microdilution method

[12] = tested on: Staphylococcus aureus; assay: Bactericidal activity against methicillin-resistant Staphylococcus aureus USA400 assessed as 3 log reduction in number of colony forming units at 5 times MIC incubated for 10 hrs by aliquots transfer to tryptic soy agar and grown for 18 to 20 hrs by Time-kill assay relative to control; assay type: functional; design: scale not given: the % may be the effect or the level left
[13] = tested on: Caco-2; assay: Cytotoxicity against human Caco2 cells assessed as reduction in cell viability at 64 ug/ml by MTS assay relative to control
[14] = tested on: Staphylococcus aureus; assay: microbe, parasite or virus in culture; settings: NRS384
Description: Antimicrobial activity against methicillin-resistant Staphylococcus aureus NRS384 by broth liquid microdilution method

[15] = tested on: Staphylococcus aureus; assay: microbe, parasite or virus in culture; settings: NRS119
Description: Antimicrobial activity against methicillin-resistant Staphylococcus aureus NRS119 by broth liquid microdilution method

[16] = tested on: Streptococcus pneumoniae; assay: Antimicrobial activity against methicillin-resistant Streptococcus pneumoniae ATCC 700677 by broth liquid microdilution method; assay type: functional
[17] = tested on: Staphylococcus aureus; assay: microbe, parasite or virus in culture; settings: NRS 385
Description: Antimicrobial activity against methicillin-resistant Staphylococcus aureus NRS 385 by broth liquid microdilution method

[18] = tested on: Staphylococcus aureus; assay: microbe, parasite or virus in culture; settings: NRS123
Description: Antimicrobial activity against methicillin-resistant Staphylococcus aureus NRS123 by broth liquid microdilution method

[19] = tested on: Staphylococcus aureus; assay: Antimicrobial activity against vancomycin-resistant Staphylococcus aureus 10 by broth liquid microdilution method; assay type: functional
[20] = tested on: Staphylococcus aureus; assay: microbe, parasite or virus in culture; settings: NRS 107
Description: Antimicrobial activity against methicillin-sensitive Staphylococcus aureus NRS 107 by broth liquid microdilution method

[21] = tested on: Escherichia coli; assay: Antimicrobial activity against Escherichia coli JW55031 harboring deltatolC mutant by broth liquid microdilution method; assay type: functional
[22] = tested on: Escherichia coli; assay: Antimicrobial activity against Escherichia coli BW25113 by broth liquid microdilution method; assay type: functional
[23] = tested on: Staphylococcus aureus; assay: Antibiofilm activity against methicillin-resistant Staphylococcus aureus USA300 at 4 times MIC incubated for 24 hrs by crystal violet staining based assay relative to control; assay type: functional
[24] = tested on: J774; assay: Cytotoxicity against mouse J774 cells assessed as reduction in cell viability at 4 to 8 ug/ml incubated for 24 hrs by MTS assay; assay type: cell-based; settings: j774, 24 h
[25] = tested on: Staphylococcus aureus; assay: Antimicrobial activity against methicillin-resistant Staphylococcus aureus USA400 infected in mouse J774 cells assessed as reduction in […] bacterial count at 2 times MIC incubated for 24 hrs relative to control; assay type: functional; design: scale not given: the % may be the effect or the level left
[26] = tested on: Staphylococcus aureus; assay: Antimicrobial activity against methicillin-resistant Staphylococcus aureus USA400 infected in mouse J774 cells assessed as reduction in […] bacterial count at 4 times MIC incubated for 24 hrs relative to control; assay type: functional; design: scale not given: the % may be the effect or the level left
[27] = tested on: Staphylococcus aureus; assay: Bactericidal activity against methicillin-resistant Staphylococcus aureus USA400 assessed as reduction in number of colony forming units at 5 times MIC incubated for 10 hrs by aliquots transfer to tryptic soy agar and grown for 18 to 20 hrs by Time-kill assay relative to control; assay type: functional; design: scale not given: the % may be the effect or the level left

C/C(=N\NC(=N)N)c1sc(-c2ccc(C#CCCn3ccnc3)cc2)nc1C
Activity [1]: 65%
MBC [2]: 32 µg/mL (≈ 81.7 µM)
MIC [2]: 8 µg/mL (≈ 20.4 µM)
MBC [3]: 16 µg/mL (≈ 40.9 µM)
MIC [3]: 4 µg/mL (≈ 10.2 µM)
MBC [4]: 16 µg/mL (≈ 40.9 µM)
MIC [4]: 8 µg/mL (≈ 20.4 µM)
MBC [5]: 16 µg/mL (≈ 40.9 µM)
MIC [5]: 4 µg/mL (≈ 10.2 µM)
MBC [6]: 32 µg/mL (≈ 81.7 µM)
MIC [6]: 8 µg/mL (≈ 20.4 µM)
MBC [7]: 16 µg/mL (≈ 40.9 µM)
MIC [7]: 4 µg/mL (≈ 10.2 µM)
MBC [8]: 16 µg/mL (≈ 40.9 µM)
MIC [8]: 4 µg/mL (≈ 10.2 µM)
Activity [9]: Active
Activity [10]: Dose-dependent effect
MBC [11]: 16 µg/mL (≈ 40.9 µM)
MIC [11]: 4 µg/mL (≈ 10.2 µM)
Activity [12]: 99.9%
Activity [13]: 70%
MBC [14]: 16 µg/mL (≈ 40.9 µM)
MIC [14]: 4 µg/mL (≈ 10.2 µM)
MBC [15]: 32 µg/mL (≈ 81.7 µM)
MIC [15]: 8 µg/mL (≈ 20.4 µM)
MBC [16]: 16 µg/mL (≈ 40.9 µM)
MIC [16]: 4 µg/mL (≈ 10.2 µM)
MBC [17]: 16 µg/mL (≈ 40.9 µM)
MIC [17]: 4 µg/mL (≈ 10.2 µM)
MBC [18]: 8 µg/mL (≈ 20.4 µM)
MIC [18]: 4 µg/mL (≈ 10.2 µM)
MBC [19]: 8 µg/mL (≈ 20.4 µM)
MIC [19]: 4 µg/mL (≈ 10.2 µM)
MBC [20]: 8 µg/mL (≈ 20.4 µM)
MIC [20]: 4 µg/mL (≈ 10.2 µM)
MIC [21]: 16 µg/mL (≈ 40.9 µM)
MIC [22]: > 64 µg/mL
Activity [23]: 81%

C/C(=N\NC(=N)N)c1sc(-c2ccc(C#CCCN3CC(O)C3)cc2)nc1C
Activity [1]: 31%
MBC [2]: 32 µg/mL (≈ 80.7 µM)
MIC [2]: 4 µg/mL (≈ 10.1 µM)
MBC [3]: 16 µg/mL (≈ 40.4 µM)
MIC [3]: 2 µg/mL (≈ 5.04 µM)
Activity [24]: Non-Toxic
MBC [4]: 16 µg/mL (≈ 40.4 µM)
MIC [4]: 4 µg/mL (≈ 10.1 µM)
MBC [5]: 8 µg/mL (≈ 20.2 µM)
MIC [5]: 4 µg/mL (≈ 10.1 µM)
MBC [6]: 16 µg/mL (≈ 40.4 µM)
MIC [6]: 8 µg/mL (≈ 20.2 µM)
MBC [7]: 16 µg/mL (≈ 40.4 µM)
MIC [7]: 4 µg/mL (≈ 10.1 µM)
MBC [8]: 4 µg/mL (≈ 10.1 µM)
MIC [8]: 4 µg/mL (≈ 10.1 µM)
Activity [10]: Dose-dependent effect
MBC [11]: 8 µg/mL (≈ 20.2 µM)
MIC [11]: 4 µg/mL (≈ 10.1 µM)
Activity [25]: 55%
MBC [14]: 4 µg/mL (≈ 10.1 µM)
MIC [14]: 4 µg/mL (≈ 10.1 µM)
Activity [26]: 99%
MBC [15]: 8 µg/mL (≈ 20.2 µM)
MIC [15]: 4 µg/mL (≈ 10.1 µM)
MBC [16]: 16 µg/mL (≈ 40.4 µM)
MIC [16]: 4 µg/mL (≈ 10.1 µM)
MBC [17]: 4 µg/mL (≈ 10.1 µM)
MIC [17]: 4 µg/mL (≈ 10.1 µM)
MBC [18]: 8 µg/mL (≈ 20.2 µM)
MIC [18]: 4 µg/mL (≈ 10.1 µM)
MBC [19]: 8 µg/mL (≈ 20.2 µM)
MIC [19]: 4 µg/mL (≈ 10.1 µM)
MBC [20]: 4 µg/mL (≈ 10.1 µM)
MIC [20]: 4 µg/mL (≈ 10.1 µM)
Activity [27]: 100%
Activity [23]: 72%
